This assay concerns BDF1 mice, P388 leukemia ip, median survival T/C. As to the kind of experiment: NCI In Vivo Anticancer Drug Screen. Data for tumor model P388 Leukemia (intraperitoneal) in B6D2F1 (BDF1) mice. The note with it: endpoint: median survival time, higher = longer survival. The procedure, abridged:
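Compound-treated tumour-bearing mice were compared with vehicle-treated controls. Survival was recorded, and the value is the treated-group measurement divided by the control-group measurement (T/C).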

Setting [1] is: dose: 100.0 mg/kg/injection, schedule: Q04DX003 (ip), vehicle: Klucel (hydroxypropylcellulose) (HPC).
Where [2] appears, read: dose: 400.0 mg/kg/injection, schedule: Q04DX003 (ip), vehicle: Klucel (hydroxypropylcellulose) (HPC).
Setting [3] is: dose: 100.0 mg/kg/injection, schedule: Q04DX003 (ip), vehicle: saline.
Where [4] appears, read: dose: 25.0 mg/kg/injection, schedule: Q01DX009 (ip), vehicle: Klucel (hydroxypropylcellulose) (HPC).
The mark [5] stands for this setting: dose: 50.0 mg/kg/injection, schedule: Q01DX009 (ip), vehicle: Klucel (hydroxypropylcellulose) (HPC).
The mark [6] stands for this setting: dose: 50.0 mg/kg/injection, schedule: Q01DX009 (ip), vehicle: saline with Tween-80.
The mark [7] stands for this setting: dose: 50.0 mg/kg/injection, schedule: Q04DX003 (ip), vehicle: Klucel (hydroxypropylcellulose) (HPC).
The mark [8] stands for this setting: dose: 100.0 mg/kg/injection, schedule: Q01DX009 (ip), vehicle: Klucel (hydroxypropylcellulose) (HPC).
[9] abbreviates: dose: 100.0 mg/kg/injection, schedule: Q01DX009 (ip), vehicle: saline with Tween-80.
Setting [10] is: dose: 200.0 mg/kg/injection, schedule: Q01DX009 (ip), vehicle: saline with Tween-80.
Where [11] appears, read: dose: 400.0 mg/kg/injection, schedule: Q01DX009 (ip), vehicle: saline with Tween-80.
The mark [12] stands for this setting: dose: 50.0 mg/kg/injection, schedule: Q01DX009 (ip), vehicle: saline.
Where [13] appears, read: dose: 100.0 mg/kg/injection, schedule: Q04DX003 (ip), vehicle: saline with Tween-80.
[14] abbreviates: dose: 200.0 mg/kg/injection, schedule: Q04DX003 (ip), vehicle: saline with Tween-80.

Several values for one entry are separate records, joined by “and”; a condition that tells them apart may be missing. Equal values may be shown once. Inconclusive results and toxic doses are left out.

As to `CC(C)c1c[nH]c(=O)[nH]c1=O`, the T/C (dose: 100.0 mg/kg/injection, schedule: Q01DX001 (ip), vehicle: saline) is 100 % of control; the T/C under setting [1] was 104 % of control; the T/C (dose: 200.0 mg/kg/injection, schedule: Q01DX001 (ip), vehicle: saline) is 95 % of control; the T/C (dose: 200.0 mg/kg/injection, schedule: Q04DX003 (ip), vehicle: Klucel (hydroxypropylcellulose) (HPC)) was 90 % of control; the T/C (dose: 400.0 mg/kg/injection, schedule: Q01DX001 (ip), vehicle: saline) was 100 % of control; the T/C under setting [2] is 104 % of control.
For `O=c1[nH]c2cc(Cl)ccc2c(CCl)c1Cl`, the T/C reads like this: (dose: 25.0 mg/kg/injection, schedule: Q04DX003 (ip), vehicle: saline) 109 % of control; (dose: 50.0 mg/kg/injection, schedule: Q04DX003 (ip), vehicle: saline) 104 % of control; (dose: 56.25 mg/kg/injection, schedule: Q01DX001 (ip), vehicle: saline with Tween-80) 109 % of control; under setting [3], 100 % of control; (dose: 112.5 mg/kg/injection, schedule: Q01DX001 (ip), vehicle: saline with Tween-80) 113 % of control; (dose: 225.0 mg/kg/injection, schedule: Q01DX001 (ip), vehicle: saline with Tween-80) 109 % of control.
For `CSc1nc(N)cc(NC(=O)CCl)n1`, the T/C by setting is: under setting [4], 113 % of control; under setting [5], 95 % of control; under setting [6], 100 % of control; under setting [7], 113 % of control; under setting [8], 122 % of control; under setting [9], 100 % of control. Moreover, the T/C under setting [1] is 118 % of control.
Regarding `CCC(CO)NC(=O)/C=C/c1ccccc1` (stereo not given), the T/C runs as follows: under setting [10], 91 % of control; under setting [11], 91 % of control.
Consider `CC(=O)Nc1ccc(/C=N/Nc2ccc([N+](=O)[O-])cn2)cc1`, for which the T/C runs as follows: (dose: 62.5 mg/kg/injection, schedule: Q01DX010 (ip), vehicle: saline) 95 % of control; (dose: 100.0 mg/kg/injection, schedule: Q04DX003 (ip), vehicle: saline sonified) 105 % of control; (dose: 125.0 mg/kg/injection, schedule: Q01DX010 (ip), vehicle: saline) 90 % of control; (dose: 200.0 mg/kg/injection, schedule: Q04DX003 (ip), vehicle: saline sonified) 105 % of control; (dose: 250.0 mg/kg/injection, schedule: Q01DX010 (ip), vehicle: saline) 100 % of control; (dose: 400.0 mg/kg/injection, schedule: Q04DX003 (ip), vehicle: saline sonified) 100 % of control.
As to `CC(=O)OC1C=COC(C)C1OC(C)=O` (stereo not given), the T/C reads like this: under setting [12], 98 % of control; (dose: 100.0 mg/kg/injection, schedule: Q01DX009 (ip), vehicle: saline) 114 % of control; under setting [3], 100 % of control; (dose: 200.0 mg/kg/injection, schedule: Q04DX003 (ip), vehicle: saline) 99 % of control; (dose: 400.0 mg/kg/injection, schedule: Q04DX003 (ip), vehicle: saline) 100 % of control.
As for `CC(C)Oc1ccc2c(c1)Sc1ccc(Cl)cc1N2`, the T/C under setting [9] is 104 % of control, the T/C under setting [10] is 104 % of control and the T/C under setting [11] was 104 % of control.
With `O=S(=O)(Nc1ccc(C(F)(F)F)cc1)c1ccc(C(F)(F)F)cc1`, the T/C by setting is: under setting [7], 90 % of control; under setting [1], 90 % of control.
For the molecule `Cc1c(NC(=O)Nc2cccc(F)c2)c(=O)n(-c2ccccc2)n1C`, the T/C was 120 % of control under setting [9], 95 % of control under setting [10] and 90 % of control under setting [11].
Consider `COc1ccc(Br)cc1/C=N/N=C/c1cc(Br)ccc1OC`, for which the T/C is 95 % of control under setting [9], 95 % of control under setting [10] and 95 % of control under setting [11].
Turning to `COc1ccccc1/C=N/NC(=O)c1ccccc1`, the T/C is, setting by setting: under setting [13], 100 % of control; under setting [14], 104 % of control; (dose: 400.0 mg/kg/injection, schedule: Q04DX003 (ip), vehicle: saline with Tween-80) 104 % of control.
On to `Oc1ccc(/C=N/NC(=S)Nc2ccccc2)nc1`, for which the T/C under setting [2] is 150 % of control.
As to `C/C(=N/S(=O)(=O)c1ccc(C)cc1)OCCN(C)C`, the T/C (dose: 1.5 mg/kg/injection, schedule: Q01DX009 (ip), vehicle: saline with Tween-80) is 104 % of control; the T/C (dose: 3.0 mg/kg/injection, schedule: Q01DX009 (ip), vehicle: saline with Tween-80) is 109 % of control; the T/C (dose: 3.0 mg/kg/injection, schedule: Q04DX003 (ip), vehicle: saline with Tween-80) is 100 % of control; the T/C (dose: 6.0 mg/kg/injection, schedule: Q01DX009 (ip), vehicle: saline with Tween-80) is 118 % of control; the T/C (dose: 6.0 mg/kg/injection, schedule: Q04DX003 (ip), vehicle: saline with Tween-80) was 100 % of control.
Turning to `CCCCCCCCCCCCCCCCSc1ccc(C)cc1`, the T/C reads like this: (dose: 5.0 mg/kg/injection, schedule: Q04DX003 (ip), vehicle: saline sonified) 105 % of control; (dose: 10.0 mg/kg/injection, schedule: Q04DX003 (ip), vehicle: saline sonified) 105 % of control; (dose: 20.0 mg/kg/injection, schedule: Q04DX003 (ip), vehicle: saline sonified) 100 % of control; (dose: 200.0 mg/kg/injection, schedule: Q04DX003 (ip), vehicle: other) 100 % of control; (dose: 400.0 mg/kg/injection, schedule: Q04DX003 (ip), vehicle: other) 100 % of control.
Take `N#CC(O)Cc1ccccc1` (stereo not given): the T/C by setting is: (dose: 2.5 mg/kg/injection, schedule: Q01DX009 (ip), vehicle: other) 100 % of control; (dose: 5.0 mg/kg/injection, schedule: Q01DX009 (ip), vehicle: other) 100 % of control; (dose: 10.0 mg/kg/injection, schedule: Q01DX009 (ip), vehicle: other) 100 % of control.
As to `Cc1ccc2c(c1)NC(c1ccc(C(=O)O)cc1)c1cccn1-2` (stereo not given), the T/C runs as follows: under setting [6], 86 % of control; under setting [9], 89 % of control; under setting [10], 91 % of control.
As for `CC(=O)O[C@]1(C(C)=O)CC[C@H]2[C@@H]3C[C@H](C)C4=CC(=O)C=C[C@]4(C)[C@@]3(F)[C@@H](O)C[C@@]21C`, the T/C is, setting by setting: (dose: 12.5 mg/kg/injection, schedule: Q01DX010 (sc), vehicle: steriod suspending solution) 100 % of control and 108 % of control; (dose: 25.0 mg/kg/injection, schedule: Q01DX010 (sc), vehicle: steriod suspending solution) 100 % of control and 112 % of control; (dose: 50.0 mg/kg/injection, schedule: Q01DX010 (sc), vehicle: steriod suspending solution) 95 % of control and 112 % of control; (dose: 100.0 mg/kg/injection, schedule: Q01DX010 (sc), vehicle: steriod suspending solution) 91 % of control and 104 % of control.
As to `c1ccc(N/N=C(/C[n+]2cc3ccccc3c3ccccc32)c2ccccc2)cc1`, the T/C was 114 % of control under setting [4]; 113 % of control (dose: 33.0 mg/kg/injection, schedule: Q01DX009 (ip), vehicle: Klucel (hydroxypropylcellulose) (HPC)); 95 % of control (dose: 35.0 mg/kg/injection, schedule: Q01DX009 (ip), vehicle: Klucel (hydroxypropylcellulose) (HPC)); 100 % of control under setting [5]; 112 % of control and 122 % of control (dose: 75.0 mg/kg/injection, schedule: Q01DX009 (ip), vehicle: Klucel (hydroxypropylcellulose) (HPC)); 114 % of control under setting [8].
For the molecule `O=C1CN(Cc2ccc(Cl)cc2)CC(=O)N2CCCN12`, for the setting “dose: 50.0 mg/kg/injection, schedule: Q01DX005 (ip), vehicle: saline with Tween-80”, the T/C was 92 % of control.
On to `O=C(/C=C/c1ccc2c(c1)OCO2)c1ccc(Cl)cc1`, for which the T/C is 100 % of control (dose: 50.0 mg/kg/injection, schedule: Q04DX003 (ip), vehicle: saline with Tween-80); 100 % of control under setting [13]; 100 % of control under setting [14].
`C=C1C(=O)OC2CC(C)C3(O)OC(C)(CC(OC(=O)C(C)C)C12)CC3O` (stereo not given): the T/C (dose: 13.0 mg/kg/injection, schedule: Q01DX009 (ip), vehicle: saline) is 120 % of control; the T/C (dose: 25.0 mg/kg/injection, schedule: Q01DX009 (ip), vehicle: saline) is 110 % of control; the T/C under setting [12] is 95 % of control.

The record behind these values is PubChem BioAssay AID328 (DTP/NCI, 2004).
